The compounds below were run on native tau aggregates (assay: TAU radioligand in vitro displacement assay ([3H]T808, autoradiography on human AD brain sections)). Conditions: compound 10 nM, radioligand [3H]T808 10 nM.
Format: binding
From the text: TAU Radioligand-In-Vitro Displacement Assay
This in vitro binding assay assesses the affinity of compounds for native tau aggregates.
AD human brains are purchased from Banner Sun Health Research Institute (Sun City, Ariz., USA). Pathological diagnosis of AD is made according to standard NIA-Reagan Institute criteria based on neuropathological data. The radioligand [^3H]T808 was synthesized in-house ([^3H]-2-[4-(2-Fluoro-ethyl)-piperidin-1-yl]-benzo[4,5]imidazo[1,2-a]pyrimidine, radiochemical purity 99.0%). As a reference cold T808 is used (2-[4-(2-Fluoro-ethyl)-piperidin-1-yl]-benzo[4,5]imidazo[1,2-a]pyrimidine). For the autoradiography FujiFilm Imaging Plates (BAS-IP TR 2025) are exposed to the sections and read with a FujiFilm IP reader (BAS-5000).
Ten μm thick human AD brain sections are generated with a cryostat (Leica CM3050) at −17° C. chamber temperature and −15° C. object temperature. Sections are transferred to Histobond+ microscope slides (Marienfeld Laboratory Glasware). After drying for 3 hours at room temperature the sections are stored at −20° C. The sections are incubated with the radioligand (10 nM) and the respective cold compound (at various concentrations) in 50 mM Tris buffer, pH 7.4 at room temperature for 30 min. After washing 3× 10 min at 4° C. in 50 mM Tris buffer, pH 7.4 and 3 quick dips in H2O dist. at 4° C. the sections are dried at 4° C. for 3 h. The sections are placed in a FujiFilm Cassette (BAS 2025), exposed with an Imaging Plate for five days and afterwards scanned with a resolution of […].
The signal intensity (Dens−PSL/mm2) in the region of interest (ROI) of the autoradiogram is quantified with the software MCID analysis (version 7.0, Imaging Research Inc.). The specific binding (SB) of [^3H]T808 binding in absence or in presence of a compound is calculated by subtracting the non-specific binding signal in the white matter, thus yielding SB[3H]T808 only and SBcompound. The % displacement by the various compounds is calculated as following: % displacement=100−(SBcompound/SB[3H]T808 only)*100. Validation Data
In each experiment cold T808 is used as a positive internal control. Co-incubation of equimolar amounts of hot and cold T808 is expected to reduce specific binding by approximately 50%.

SMILES	% displacement of [3H]T808 (10 nM) at 10 nM [%]
CC(=O)O.COc1cccc(-c2cn3ccc(N(C)CCF)cc3n2)c1 [Example 83, N-(2-fluoroethyl)-2-(3-methoxyphenyl)-N-methylimidazo[1,2-a]pyridin-7-amine, acetic acid adduct]	32
FC1CCN(c2ccn3cc(-c4ccc5c(c4)OCCO5)nc3c2)CC1 [Example 84, 2-(2,3-Dihydro-benzo[1, 4]dioxin-6-yl)-7-(4-fluoro-piperidin-1-yl)-imidazo[1,2-a]pyridine]	26
Cc1cccc(-c2cn3ccc(N4CCC(CCF)CC4)cc3n2)c1 [Example 85, 7-[4-(2-Fluoro-ethyl)-piperidin-1-yl]-2-m-tolyl-imidazo[1,2-a]pyridine]	17
CO[C@@H]1CCN(c2ccn3cc(-c4cccc(C)c4)nc3c2)C1 [Example 86, 7-((R)-3-Methoxy-pyrrolidin-1-yl)-2-m-tolyl-imidazo[1,2-a]pyridine]	33
Cc1ccc(-c2cn3ccc(N4CCC(CCF)CC4)cc3n2)cc1 [Example 87, 7-[4-(2-Fluoro-ethyl)-piperidin-1-yl]-2-p-tolyl-imidazo[1,2-a]pyridine]	5
CO[C@H]1CCN(c2ccn3cc(-c4ccc(C)cc4)nc3c2)C1 [Example 88, 7-((S)-3-Methoxy-pyrrolidin-1-yl)-2-p-tolyl-imidazo[1,2-a]pyridine]	34
CNc1ccn2cc(-c3ccc(CO)cc3)nc2c1 [Example 89, [4-[7-(Methylamino)imidazo[1,2-a]pyridin-2-yl]phenyl]methanol acetic acid adduct]	54
CN(C)c1ccn2cc(-c3ccc(CO)cc3)nc2c1 [Example 90, [4-[7-(Dimethylamino)imidazo[1,2-a]pyridin-2-yl]phenyl]methanol acetic acid adduct]	32
COc1cccc(-c2cn3ccc(N4CCC4)cc3n2)c1 [Example 91, 7-(azetidin-1-yl)-2-(3-methoxyphenyl)imidazo[1,2-a]pyridine]	39
CNc1ccn2cc(-c3cc(OC)cc(OC)c3)nc2c1 [Example 92, 2-(3,5-dimethoxyphenyl)-N-methylimidazo[1,2-a]pyridin-7-amine]	25
CC(=O)O.CCOc1ccc(-c2cn3ccc(NC)cc3n2)cc1 [Example 93, N-[2-(4-Ethoxy-phenyl)-imidazo[1,2-a]pyridin-7-yl]-methyl-amine acetic acid adduct]	39
CC(=O)O.CNc1ccn2cc(-c3ccc(N4CCCC4)cc3)nc2c1 [Example 94, Methyl-[2-(4-pyrrolidin-1-yl-phenyl)-imidazo[1,2-a]pyridin-7-yl]-amine acetic acid adduct]	18
CNc1ccn2cc(-c3ccc(OC)c(F)c3)nc2c1 [Example 95, N-[2-(3-Fluoro-4-methoxy-phenyl)-imidazo[1,2-a]pyridin-7-yl]-methyl-amine]	55
CNc1ccn2cc(-c3ccc4c(c3)OCCCO4)nc2c1 [Example 96, N-[2-(3,4-Dihydro-2H-benzo[b][1,4]dioxepin-7-yl)-imidazo[1,2-a]pyridin-7-yl]-methyl-amine]	35
CCN(CC)c1ccc(-c2cn3ccc(NC)cc3n2)cc1 [Example 97, N-[2-(4-Diethylamino-phenyl)-imidazo[1,2-a]pyridin-7-yl]-methyl-amine]	18
CCc1ccc(-c2cn3ccc(NC)cc3n2)cc1 [Example 98, N-[2-(4-Ethyl-phenyl)-imidazo[1,2-a]pyridin-7-yl]-methyl-amine]	38
COCc1ccc(-c2cn3ccc(N(C)C)cc3n2)cc1 [Example 99, 2-[4-(Methoxymethyl)phenyl]-N,N-dimethyl-imidazo[1,2-a]pyridin-7-amine acetic acid adduct]	37

SMILES	% displacement of [3H]T808 (10 nM) at 10 nM [%]
CNc1ccn2cc(-c3ccsc3)nc2c1 [Example 100, Methyl-(2-thiophen-3-yl-imidazo[1,2-a]pyridin-7-yl)-amine]	59
CNc1ccn2cc(-c3ccco3)nc2c1 [Example 101, N-(2-Furan-2-yl-imidazo[1,2-a]pyridin-7-yl)-methyl-amine]	50
CNc1ccn2cc(-c3cccs3)nc2c1 [Example 102, N-(2-Thiophen-2-yl-imidazo[1,2-a]pyridin-7-yl)-methyl-amine]	50
CNc1ccn2cc(-c3ccc(N4CCOCC4)cc3)nc2c1 [Example 103, Methyl-[2-(4-morpholin-4-yl-phenyl)-imidazo[1,2-a]pyridin-7-yl]-amine]	47
CNc1ccn2cc(-c3nccs3)nc2c1 [Example 104, Methyl-(2-thiazol-2-yl-imidazo[1,2-a]pyridin-7-yl)-amine]	10
CN(C)c1ccn2cc(-c3ccc(COCCF)cc3)nc2c1 [Example 105, 2-[4-(2-Fluoroethoxymethyl)phenyl]-N,N-dimethyl-imidazo[1,2-a]pyridin-7-amine]	10
FCCOc1ccc(-c2cn3ccc(N4CCC4)cc3n2)cc1 [Example 106, 7-(Azetidin-1-yl)-2-[4-(2-fluoroethoxy)phenyl]imidazo[1,2-a]pyridine]	36
FCOc1cccc(-c2cn3ccc(N4CCC4)cc3n2)c1 [Example 107, 7-(Azetidin-1-yl)-2-[3-(fluoromethoxy)phenyl]imidazo[1,2-a]pyridine]	48
CNc1ccn2cc(-c3ccc(C)c(OC)c3)nc2c1 [Example 108, 2-(3-methoxy-4-methylphenyl)-N-methylimidazo[1,2-a]pyridin-7-amine]	26
CNc1ccn2cc(-c3ccc(OCCF)cc3)nc2c1 [Example 109, 2-[4-(2-Fluoroethoxy)phenyl]-N-methylimidazo[1,2-a]pyridin-7-amine]	40
CNc1ccn2cc(-c3ccc(N(C)Cc4ccccc4)cc3)nc2c1 [Example 110, 2-(4-(benzyl(methyl)amino)phenyl)-N-methylimidazo[1,2-a]pyridin-7-amine]	14
CNc1ccn2cc(-c3sccc3Br)nc2c1 [Example 111, N-[2-(3-Bromo-thiophen-2-yl)-imidazo[1,2-a]pyridin-7-yl]-methyl-amine]	17
CNc1ccn2cc(-c3sccc3Cl)nc2c1 [Example 112, N-[2-(3-Chloro-thiophen-2-yl)-imidazo[1,2-a]pyridin-7-yl]-methyl-amine]	6
CNc1ccn2cc(-c3ccc(OC(F)F)cc3)nc2c1 [Example 113, N-[2-(4-Difluoromethoxy-phenyl)-imidazo[1,2-a]pyridin-7-yl]-methyl-amine]	48
CNc1ccn2cc(-c3ccc(Br)cc3)nc2c1 [Example 114, N-[2-(4-Bromo-phenyl)-imidazo[1,2-a]pyridin-7-yl]-methyl-amine]	33
CNc1ccn2cc(-c3ccc(C)o3)nc2c1 [Example 115, Methyl-[2-(5-methyl-furan-2-yl)-imidazo[1,2-a]pyridin-7-yl]-amine]	58
